Legend:
[1] = target: hERG channel (Homo sapiens, UniProt Q12809); assay: In vitro safety: hERG channel inhibition; assay type: biochemical
Experimental: time-dependent manner for 80 min with an acquisition interval of 2 min. IC50 curves were
plotted using a non-linear regression model with Graphpad Prism 6. The latter method was
further applied to assess the inhibitory constant of compound 27 to the hERG channel. […]

[2] = target: T1, HEK293-PDE7B recombinant cell lines (Homo sapiens, UniProt Q9NP56); assay: In vitro cell uptake and blocking of [11C]27; assay type: cell-based; conditions: blocker 1 μM, 60 min incubation, PDE7B overexpressing HEK293 cells, n = 4
T1 construct: host or cells: HEK293
T1 sequence (Q9NP56 whole entry): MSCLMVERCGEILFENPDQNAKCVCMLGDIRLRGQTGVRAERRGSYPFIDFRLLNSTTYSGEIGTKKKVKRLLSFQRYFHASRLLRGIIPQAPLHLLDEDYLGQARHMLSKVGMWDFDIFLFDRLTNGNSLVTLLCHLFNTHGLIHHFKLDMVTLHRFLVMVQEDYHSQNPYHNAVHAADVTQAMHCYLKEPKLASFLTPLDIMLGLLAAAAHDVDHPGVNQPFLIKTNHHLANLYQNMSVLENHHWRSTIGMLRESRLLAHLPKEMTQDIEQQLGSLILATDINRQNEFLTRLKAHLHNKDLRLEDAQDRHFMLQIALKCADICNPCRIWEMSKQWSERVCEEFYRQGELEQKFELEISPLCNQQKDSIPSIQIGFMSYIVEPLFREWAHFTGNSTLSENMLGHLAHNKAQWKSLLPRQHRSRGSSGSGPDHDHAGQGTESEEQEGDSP
Experimental: Control study: HEK293-PDE7B Recombinant cells (catalog#60412, BPS Bioscience) and HEK293 control cells (catalog# CRL-1573, ATCC) – both in logarithmic growth phase – were plated in a 24 well plate (2 × 10^5 cells per well) and cultured overnight. After 24 hr, each well was added 2 μCi of [ 11C]27, and incubated at 37 °C for 30 min or 60 min. The radioactive medium was aspirated and collected in a tube. The residual cells were washed twice with PBS, and then collected in the same tube. The cells were lysed with 1 N NaOH (200 μL) and washed twice with PBS, all the resulting solutions were collected in one tube.
The radioactivity in the collected supernatant and cell lysis buffer (600 μL/tube) was measured using a Cobra Model 5002/5003 gamma counter, respectively.
Blocking study: HEK293-PDE7B cells in logarithmic growth phase were plated in 24 well plate (2 × 10^5 cells per well) and cultured overnight. After 24 h, each well was added 2 μCi of [11C]27 with or without unlabeled reference compound 27 or BRL50481, respectively. The resulting culture medium contained 2 μCi of [ 11C]27, 1 µM of unlabeled compound 27 or BRL50481, and 5% DMSO. Cells were incubated at 37 °C for 60 min and samples were collected as described for the control study. The cell uptake was calculated according to the following eq.: cell uptake% = A lysis buffer/(A lysis buffer+Asupernate) (n = 4)

[3] = target: T2, CYP1A2 (Homo sapiens, UniProt P05177); assay: CYP450 isoform inhibition profiling, CYP1A2; assay type: in vitro ADME
T2 sequence (P05177 1-516): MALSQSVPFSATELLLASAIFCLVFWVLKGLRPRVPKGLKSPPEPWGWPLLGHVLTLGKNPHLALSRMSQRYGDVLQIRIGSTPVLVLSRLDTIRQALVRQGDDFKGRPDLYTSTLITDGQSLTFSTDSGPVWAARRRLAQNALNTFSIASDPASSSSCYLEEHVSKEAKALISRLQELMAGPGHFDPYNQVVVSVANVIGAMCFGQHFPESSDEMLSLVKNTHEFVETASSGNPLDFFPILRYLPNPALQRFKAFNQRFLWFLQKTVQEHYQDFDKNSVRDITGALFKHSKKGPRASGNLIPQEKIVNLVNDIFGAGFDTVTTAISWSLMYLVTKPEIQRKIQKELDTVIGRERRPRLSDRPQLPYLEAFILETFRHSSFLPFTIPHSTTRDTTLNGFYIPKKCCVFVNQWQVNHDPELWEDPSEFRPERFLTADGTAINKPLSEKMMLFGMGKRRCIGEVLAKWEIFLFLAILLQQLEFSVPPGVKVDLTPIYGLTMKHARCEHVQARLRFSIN
Experimental: page 5: protein-ligand complex were saved and were then loaded into Schrödinger Maestro to generate the ligand interaction plot. In vitro inhibitory assay to PDE7 of compound 27 and selectivity to other PDEs Functional activity of target compound 27 for inhibition of PDE7A activity and the selectivity over other PDE isozymes ([…], and 10A) were evaluated by Eurofins Panlabs Discovery Services and Reaction Biology Corp., respectively. Human recombinant enzymes were used for the assays. The inhibitory assays were performed and calculated in duplicate at 3 μM. If the inhibition percentage was less […] duplicate. CYP450 isoform metabolism and in vitro safety profiling The inhibitory constant of compound 26 toward cytochrome P450-dependent metabolic pathways was determined for individual CYP isoform (CYP1A2, CYP2C9, CYP2C19, CYP2D6, and CYP3A4). Reference inhibitors were included as positive controls. A 10 μM solution of compound 27 was used for initial screening. If the inhibition percentage was less than 50%, the experiment was stopped. […] gradient concentrations of compound 27 were used for IC 50 determination. The P450 reactions were detected at Ext/Em: 405 nm/460 nm (530 nm/605 nm for CYP2C9) in a S3 page 6: […] IC50 curves were plotted using a non-linear regression model with Graphpad Prism 6. […] Plasma and brain samples were quantified by LC-MS/MS method. […]

hERG channel, sequence (Q12809 whole entry): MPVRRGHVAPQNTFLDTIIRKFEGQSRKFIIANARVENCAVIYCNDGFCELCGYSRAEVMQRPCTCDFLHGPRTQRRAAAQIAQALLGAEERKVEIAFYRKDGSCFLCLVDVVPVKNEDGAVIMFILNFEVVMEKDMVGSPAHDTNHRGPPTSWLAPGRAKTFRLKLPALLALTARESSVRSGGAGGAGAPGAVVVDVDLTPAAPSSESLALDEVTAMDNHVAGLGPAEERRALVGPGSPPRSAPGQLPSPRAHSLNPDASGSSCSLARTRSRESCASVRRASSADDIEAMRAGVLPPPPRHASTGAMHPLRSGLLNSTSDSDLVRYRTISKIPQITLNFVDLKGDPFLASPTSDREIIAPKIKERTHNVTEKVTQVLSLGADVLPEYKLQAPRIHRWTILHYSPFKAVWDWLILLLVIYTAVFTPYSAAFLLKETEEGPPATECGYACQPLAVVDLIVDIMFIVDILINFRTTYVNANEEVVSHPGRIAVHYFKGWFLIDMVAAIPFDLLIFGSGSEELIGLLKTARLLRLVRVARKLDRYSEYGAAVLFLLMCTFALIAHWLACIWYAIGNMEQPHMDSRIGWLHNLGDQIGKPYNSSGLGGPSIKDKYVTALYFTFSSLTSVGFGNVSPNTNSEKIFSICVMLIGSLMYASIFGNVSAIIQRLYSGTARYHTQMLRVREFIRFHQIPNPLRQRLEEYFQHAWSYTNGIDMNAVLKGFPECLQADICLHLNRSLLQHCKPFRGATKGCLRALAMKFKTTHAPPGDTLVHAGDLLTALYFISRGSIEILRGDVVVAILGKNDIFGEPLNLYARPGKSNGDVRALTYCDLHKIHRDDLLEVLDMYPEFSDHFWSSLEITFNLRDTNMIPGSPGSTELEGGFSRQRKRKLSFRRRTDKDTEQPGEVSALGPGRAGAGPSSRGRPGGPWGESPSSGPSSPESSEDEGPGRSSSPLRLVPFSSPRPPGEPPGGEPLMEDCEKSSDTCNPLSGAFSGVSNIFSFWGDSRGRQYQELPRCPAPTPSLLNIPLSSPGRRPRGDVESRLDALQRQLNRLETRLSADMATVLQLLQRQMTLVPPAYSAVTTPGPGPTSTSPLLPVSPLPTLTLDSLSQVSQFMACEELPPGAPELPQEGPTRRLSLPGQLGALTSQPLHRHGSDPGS

## COc1ccc(Cl)c2c1C1(CCCCC1)NC(=O)N2 [Compound 27]
[1]
  IC50: > 100 µM
[2]
  blockade of [11C]27 cell uptake: ca. 90%
[3]
  IC50: 4.4 µM

From article PMC12434536, “Radiosynthesis and Preclinical Evaluation of a Carbon-11 Labeled Phosphodiesterase 7 Inhibitor for PET Neuroimaging” (ACS Medicinal Chemistry Letters, 2025)
